Results published in ChEMBL document CHEMBL1201861, “Genomics of Drug Sensitity in Cancer screening data, Wellcome Trust Sanger Institute”.

Assays:
[1] = test system: CaR-1; assay: cells; format: functional, cell-based; conditions: Homo sapiens;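 note: growth inhibition of human CaR-1 cancer cells, read out with a cell viability assay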
Description: SANGER: Inhibition of human CaR-1 cell growth in a cell viability assay.

[2] = test system: D-392MG; assay: cells; format: functional, cell-based; conditions: Homo sapiens
[3] = test system: DMS-273; assay: cells; format: functional, cell-based; conditions: Homo sapiens
Description: SANGER: Inhibition of human DMS-273 cell growth in a cell viability assay.

[4] = test system: Daoy; assay: cells; format: functional, cell-based; conditions: Homo sapiens;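 note: daoy cell growth inhibition, read out as cell viability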
Description: SANGER: Inhibition of human Daoy cell growth in a cell viability assay.

[5] = test system: EFO-27; assay: cells; format: functional, cell-based; conditions: Homo sapiens;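 note: growth inhibition of EFO-27 cells, read out with a cell viability assay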
Description: SANGER: Inhibition of human EFO-27 cell growth in a cell viability assay.

[6] = test system: FaDu; assay: cells; format: functional, cell-based; conditions: Homo sapiens;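 note: cell viability readout of growth inhibition in FaDu cells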
Description: SANGER: Inhibition of human FADU cell growth in a cell viability assay.

[7] = test system: GAMG; assay: cells; format: functional, cell-based; conditions: Homo sapiens;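 note: cell growth inhibition measured by a viability assay in the GAMG human cell line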
Description: SANGER: Inhibition of human GAMG cell growth in a cell viability assay.

[8] = test system: HCC1569; assay: cells; format: functional, cell-based; conditions: Homo sapiens;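 note: growth inhibition of human HCC1569 cells, read out with a cell viability assay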
Description: SANGER: Inhibition of human HCC1569 cell growth in a cell viability assay.

[9] = test system: HGC-27; assay: cells; format: functional, cell-based; conditions: Homo sapiens;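 note: growth inhibition of human HGC-27 cells, read out in a cell viability assay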
Description: SANGER: Inhibition of human HGC-27 cell growth in a cell viability assay.

[10] = test system: HLE; assay: cells; format: functional, cell-based; conditions: Homo sapiens;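 note: growth inhibition of human HLE cells, read out by a cell viability assay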
Description: SANGER: Inhibition of human HLE cell growth in a cell viability assay.

[11] = test system: HT1197; assay: cells; format: functional, cell-based, HT-1197; conditions: Homo sapiens
Description: SANGER: Inhibition of human HT-1197 cell growth in a cell viability assay.

[12] = test system: IMR-5; assay: cells; format: functional, cell-based; conditions: Homo sapiens;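 note: growth inhibition of human IMR-5 cells, read out with a cell viability assay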
Description: SANGER: Inhibition of human IMR-5 cell growth in a cell viability assay.

[13] = test system: KARPAS-422; assay: cells; format: functional, cell-based; conditions: Homo sapiens
Description: SANGER: Inhibition of human KARPAS-422 cell growth in a cell viability assay.

[14] = test system: Kasumi 1; assay: cells; format: functional, cell-based; conditions: Homo sapiens;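 note: growth inhibition of human Kasumi-1 cells, read out by a cell viability assay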
Description: SANGER: Inhibition of human KASUMI-1 cell growth in a cell viability assay.

[15] = test system: KMS-12-PE; assay: cells; format: functional, cell-based; conditions: Homo sapiens;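 note: growth inhibition of human KMS-12-PE cells, measured with a cell viability assay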
Description: SANGER: Inhibition of human KMS-12-PE cell growth in a cell viability assay.

[16] = test system: KOSC-2; assay: cells; format: functional, cell-based; conditions: Homo sapiens;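 note: growth inhibition of KOSC-2 cells, read out by a cell viability assay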
Description: SANGER: Inhibition of human KOSC-2 cell growth in a cell viability assay.

[17] = test system: KYSE-520 cell line; assay: cells; format: functional, cell-based; conditions: Homo sapiens;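 note: growth inhibition of human KYSE-520 cells, read out with a viability assay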
Description: SANGER: Inhibition of human KYSE-520 cell growth in a cell viability assay.

[18] = test system: LN-405; assay: cells; format: functional, cell-based; conditions: Homo sapiens
Description: SANGER: Inhibition of human LN-405 cell growth in a cell viability assay.

[19] = test system: LP-1; assay: cells; format: functional, cell-based; conditions: Homo sapiens;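 note: growth inhibition of human LP-1 cells, with the read-out taken from a cell viability assay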
Description: SANGER: Inhibition of human LP-1 cell growth in a cell viability assay.

[20] = test system: LoVo; assay: cells; format: functional, cell-based; conditions: Homo sapiens;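 note: growth inhibition of human LoVo cells, read out with a cell viability assay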
Description: SANGER: Inhibition of human LoVo cell growth in a cell viability assay.

[21] = test system: MC-CAR; assay: cells; format: functional, cell-based; conditions: Homo sapiens;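 note: growth inhibition of the human MC-CAR cell line, read out by a cell viability assay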
Description: SANGER: Inhibition of human MC-CAR cell growth in a cell viability assay.

[22] = test system: MDA-MB-415; assay: cells; format: functional, cell-based; conditions: Homo sapiens
[23] = test system: NCCIT; assay: SANGER: Inhibition of human NCCIT cell growth in a cell viability assay.; format: functional, cell-based
[24] = test system: NCI-H1522; assay: cells; format: functional, cell-based; conditions: Homo sapiens;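 note: growth inhibition of NCI-H1522 cells, read out with a cell viability assay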
Description: SANGER: Inhibition of human NCI-H1522 cell growth in a cell viability assay.

[25] = test system: NCI-H1623; assay: cells; format: functional, cell-based; conditions: Homo sapiens;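 note: cell viability assay used as the read-out for growth inhibition of NCI-H1623 cells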
Description: SANGER: Inhibition of human NCI-H1623 cell growth in a cell viability assay.

[26] = test system: NCI-H1792; assay: cells; format: functional, cell-based; conditions: Homo sapiens;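 note: growth inhibition of human NCI-H1792 cells, read out as cell viability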
Description: SANGER: Inhibition of human NCI-H1792 cell growth in a cell viability assay.

[27] = test system: NCI-H1793; assay: cells; format: functional, cell-based; conditions: Homo sapiens;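 note: cell growth inhibition, read out by a cell viability assay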
Description: SANGER: Inhibition of human NCI-H1793 cell growth in a cell viability assay.

[28] = test system: NCI-H1882; assay: cells; format: functional, cell-based; conditions: Homo sapiens;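 note: growth inhibition of the cell line, determined with a viability assay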
Description: SANGER: Inhibition of human NCI-H1882 cell growth in a cell viability assay.

[29] = test system: NCI-H2087; assay: cells; format: functional, cell-based; conditions: Homo sapiens;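 note: growth inhibition determined with a cell viability readout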
Description: SANGER: Inhibition of human NCI-H2087 cell growth in a cell viability assay.

[30] = test system: NCI-H2141; assay: cells; format: functional, cell-based; conditions: Homo sapiens;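 note: growth inhibition of human NCI-H2141 cells, read out with a cell viability assay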
Description: SANGER: Inhibition of human NCI-H2141 cell growth in a cell viability assay.

[31] = test system: NCI-H2452; assay: cells; format: functional, cell-based; conditions: Homo sapiens;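 note: growth inhibition of NCI-H2452 cells, read out with a cell viability assay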
Description: SANGER: Inhibition of human NCI-H2452 cell growth in a cell viability assay.

[32] = test system: NCI-H345; assay: cells; format: functional, cell-based; conditions: Homo sapiens;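 note: growth inhibition of NCI-H345 cells measured with a cell viability assay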
Description: SANGER: Inhibition of human NCI-H345 cell growth in a cell viability assay.

[33] = test system: NCI-H716; assay: cells; format: functional, cell-based; conditions: Homo sapiens;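 note: growth inhibition of human NCI-H716 cells, measured by a cell viability assay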
Description: SANGER: Inhibition of human NCI-H716 cell growth in a cell viability assay.

[34] = test system: PANC-03-27; assay: cells; format: functional, cell-based; conditions: Homo sapiens
Description: SANGER: Inhibition of human PANC-03-27 cell growth in a cell viability assay.

[35] = test system: RPMI-6666; assay: cells; format: functional, cell-based; conditions: Homo sapiens
Description: SANGER: Inhibition of human RPMI-6666 cell growth in a cell viability assay.

[36] = test system: RT-112; assay: cells; format: functional, cell-based; conditions: Homo sapiens
Description: SANGER: Inhibition of human RT-112 cell growth in a cell viability assay.

[37] = test system: SIG-M5; assay: cells; format: functional, cell-based; conditions: Homo sapiens;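 note: cell viability assay read-out, measuring how strongly growth of cultured human SIG-M5 cells is inhibited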
Description: SANGER: Inhibition of human SIG-M5 cell growth in a cell viability assay.

[38] = test system: SIMA; assay: cells; format: functional, cell-based; conditions: Homo sapiens;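 note: growth inhibition of SIMA cells, measured with a cell viability readout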
Description: SANGER: Inhibition of human SIMA cell growth in a cell viability assay.

[39] = test system: SJRH30; assay: cells; format: functional, cell-based; conditions: Homo sapiens;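 note: growth inhibition of human SJRH30 cells, read out with a cell viability assay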
Description: SANGER: Inhibition of human SJRH30 cell growth in a cell viability assay.

[40] = test system: SK-N-AS; assay: cells; format: functional, cell-based; conditions: Homo sapiens;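 note: growth inhibition of human SK-N-AS cells, measured with a cell viability assay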
Description: SANGER: Inhibition of human SK-N-AS cell growth in a cell viability assay.

[41] = test system: SN12C; assay: cells; format: functional, cell-based; conditions: Homo sapiens;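 note: growth inhibition of human SN12C cells, measured by a cell viability assay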
Description: SANGER: Inhibition of human SN12C cell growth in a cell viability assay.

[42] = test system: SNU-C1; assay: cells; format: functional, cell-based; conditions: Homo sapiens;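 note: growth inhibition of SNU-C1 human cells, read out by a cell viability assay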
Description: SANGER: Inhibition of human SNU-C1 cell growth in a cell viability assay.

[43] = test system: SW1088; assay: cells; format: functional, cell-based; conditions: Homo sapiens;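 note: growth inhibition of human SW1088 cells, read out by a cell viability assay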
Description: SANGER: Inhibition of human SW1088 cell growth in a cell viability assay.

[44] = test system: SW13; assay: cells; format: functional, cell-based; conditions: Homo sapiens;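 note: IC50 is inhibition of SW13 cell growth, read out with a cell viability assay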
Description: SANGER: Inhibition of human SW13 cell growth in a cell viability assay.

[45] = test system: SW1463; assay: cells; format: functional, cell-based; conditions: Homo sapiens;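 note: growth inhibition of SW1463 cells, determined with a cell viability assay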
Description: SANGER: Inhibition of human SW1463 cell growth in a cell viability assay.

[46] = test system: SW837; assay: cells; format: functional, cell-based; conditions: Homo sapiens;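 note: growth inhibition of SW837 cells, determined with a cell viability assay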
Description: SANGER: Inhibition of human SW837 cell growth in a cell viability assay.

[47] = test system: SW948; assay: cells; format: functional, cell-based; conditions: Homo sapiens;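 note: growth inhibition of SW948 cells, read out with a cell viability assay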
Description: SANGER: Inhibition of human SW948 cell growth in a cell viability assay.

[48] = test system: T84; assay: cells; format: functional, cell-based; conditions: Homo sapiens;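 note: growth inhibition measured with a cell viability readout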
Description: SANGER: Inhibition of human T84 cell growth in a cell viability assay.

[49] = test system: 5637; assay: cells; format: functional, cell-based; conditions: Homo sapiens
Description: SANGER: Inhibition of human 5637 cell growth in a cell viability assay.

[50] = test system: 639-V; assay: cells; format: functional, cell-based; conditions: Homo sapiens;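 note: growth inhibition of 639-V cells, read out with a cell viability assay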
Description: SANGER: Inhibition of human 639-V cell growth in a cell viability assay.

[51] = test system: 769-P; assay: cells; format: functional, cell-based; conditions: Homo sapiens
Description: SANGER: Inhibition of human 769-P cell growth in a cell viability assay.

[52] = test system: 786-0; assay: cells; format: functional, cell-based; conditions: Homo sapiens
Description: SANGER: Inhibition of human 786-0 cell growth in a cell viability assay.

[53] = test system: 8505C; assay: cells; format: functional, cell-based; conditions: Homo sapiens
Description: SANGER: Inhibition of human 8505C cell growth in a cell viability assay.

[54] = test system: A-427; assay: cells; format: functional, cell-based; conditions: Homo sapiens;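 note: growth inhibition of human A-427 cells, read out by a cell viability assay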
Description: SANGER: Inhibition of human A427 cell growth in a cell viability assay.

[55] = test system: ABC-1; assay: cells; format: functional, cell-based; conditions: Homo sapiens;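 note: growth inhibition of human ABC-1 cells, read out by a cell viability assay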
Description: SANGER: Inhibition of human ABC-1 cell growth in a cell viability assay.

[56] = test system: ARH-77; assay: cells; format: functional, cell-based; conditions: Homo sapiens;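 note: growth inhibition of ARH-77 cells, read out by a cell viability assay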
Description: SANGER: Inhibition of human ARH-77 cell growth in a cell viability assay.

[57] = test system: BXPC-3; assay: cells; format: functional, cell-based; conditions: Homo sapiens;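 note: growth inhibition of human BxPC-3 cells, read out by a cell viability assay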
Description: SANGER: Inhibition of human BxPC-3 cell growth in a cell viability assay.

[58] = test system: C-33-A; assay: cells; format: functional, cell-based; conditions: Homo sapiens;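 note: cell viability assay measuring growth inhibition of C-33-A cells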
Description: SANGER: Inhibition of human C-33-A cell growth in a cell viability assay.

[59] = test system: CAL-27; assay: cells; format: functional, cell-based; conditions: Homo sapiens;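 note: Viability-based readout, IC50 reflecting inhibition of CAL-27 cell growth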
Description: SANGER: Inhibition of human CAL-27 cell growth in a cell viability assay.

[60] = test system: CAL-62; assay: cells; format: functional, cell-based; conditions: Homo sapiens;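 note: growth inhibition of CAL-62 cells, read out with a cell viability assay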
Description: SANGER: Inhibition of human CAL-62 cell growth in a cell viability assay.

[61] = test system: THP-1; assay: cells; format: functional, cell-based; conditions: Homo sapiens;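 note: growth inhibition of THP-1 cells, read out via a cell viability assay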
Description: SANGER: Inhibition of human THP-1 cell growth in a cell viability assay.

[62] = test system: UMC-11; assay: cells; format: functional, cell-based; conditions: Homo sapiens;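 note: growth inhibition of UMC-11 cells, read out with a cell viability assay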
Description: SANGER: Inhibition of human UMC-11 cell growth in a cell viability assay.

[63] = test system: WM-115; assay: cells; format: functional, cell-based; conditions: Homo sapiens
Description: SANGER: Inhibition of human WM-115 cell growth in a cell viability assay.

[64] = test system: WSU-NHL; assay: cells; format: functional, cell-based; conditions: Homo sapiens;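 note: growth inhibition of human WSU-NHL cells, read out with a cell viability assay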
Description: SANGER: Inhibition of human WSU-NHL cell growth in a cell viability assay.

[65] = test system: CAPAN-1; assay: cells; format: functional, cell-based; conditions: Homo sapiens;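 note: growth suppression of CAPAN-1 cells, read out by a cell viability assay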
Description: SANGER: Inhibition of human CAPAN-1 cell growth in a cell viability assay.

## CC(C)=CC[C@@H](O)C1=CC(=O)c2c(O)ccc(O)c2C1=O [SHIKONIN]
[1]
  IC50: 1310 nM
[2]
  IC50: 915 nM
[3]
  IC50: 396 nM
[4]
  IC50: 159 nM
[5]
  IC50: 330 nM
[6]
  IC50: 1770 nM
[7]
  IC50: 1710 nM
[8]
  IC50: 810 nM
[9]
  IC50: 228 nM
[10]
  IC50: 88.3 nM
[11]
  IC50: 276 nM
[12]
  IC50: 589 nM
[13]
  IC50: > 16000 nM
[14]
  IC50: 124 nM
[15]
  IC50: 559 nM
[16]
  IC50: 1490 nM
[17]
  IC50: 598 nM
[18]
  IC50: 6910 nM
[19]
  IC50: 686 nM
[20]
  IC50: 1340 nM
[21]
  IC50: 814 nM
[22]
  IC50: 2280 nM
[23]
  IC50: 517 nM
[24]
  IC50: 519 nM
[25]
  IC50: 2730 nM
[26]
  IC50: > 16000 nM
[27]
  IC50: > 16000 nM
[28]
  IC50: 576 nM
[29]
  IC50: 441 nM
[30]
  IC50: 1710 nM
[31]
  IC50: > 16000 nM
[32]
  IC50: 990 nM
[33]
  IC50: > 16000 nM
[34]
  IC50: 167 nM
[35]
  IC50: 587 nM
[36]
  IC50: 70.4 nM
[37]
  IC50: 170 nM
[38]
  IC50: 2320 nM
[39]
  IC50: 369 nM
[40]
  IC50: 1790 nM
[41]
  IC50: 1760 nM
[42]
  IC50: > 16000 nM
[43]
  IC50: 700 nM
[44]
  IC50: 1410 nM
[45]
  IC50: 8610 nM
[46]
  IC50: > 16000 nM
[47]
  IC50: 11900 nM
[48]
  IC50: 14500 nM
[49]
  IC50: > 16000 nM
[50]
  IC50: 265 nM
[51]
  IC50: 689 nM
[52]
  IC50: 344 nM
[53]
  IC50: 3100 nM
[54]
  IC50: 18 nM
[55]
  IC50: 707 nM
[56]
  IC50: 873 nM
[57]
  IC50: 334 nM
[58]
  IC50: 913 nM
[59]
  IC50: > 16000 nM
[60]
  IC50: 1280 nM
[61]
  IC50: 891 nM
[62]
  IC50: > 16000 nM
[63]
  IC50: 10600 nM
[64]
  IC50: 260 nM
[65]
  IC50: 759 nM
